The text below walks through data of ChEMBL document CHEMBL1150503, “Design, synthesis and molecular modeling of 3-acylamino-2- Carboxyindole NMDA receptor glycine-site antagonists” (Bioorg Med Chem Lett, 1991).

In this assay the target is Glutamate receptor ionotropic, NMDA 1 (Rattus norvegicus, UniProt P35439). In words: Ability of compound to compete with [3H]glycine for the strychnine-insensitive NMDA receptor glycine binding sites on rat cortical and hippocampus. The assay is classed as tissue-based.
Take `CN(C(=O)c1ccccc1)c1c(C(=O)O)[nH]c2cc(Cl)ccc12`: the IC50 (usually the midpoint of a concentration-inhibition curve) was determined as 0.11 µM. For `CN(C(=O)c1ccccc1)c1c(C(=O)O)[nH]c2cc(Cl)cc(Cl)c12`, the IC50 is 0.27 µM.

For `O=C(Nc1c(C(=O)O)[nH]c2cc(Cl)ccc12)c1ccccc1`, the IC50 was 3 µM. Turning to `O=C(Nc1c(C(=O)O)[nH]c2cc(Cl)cc(Cl)c12)c1ccccc1`, the IC50 was determined as 17 µM.

Compound `O=C(O)C(=O)Nc1c(C(=O)O)[nH]c2cc(Cl)cc(Cl)c12` yielded a 50% inhibitory concentration (IC50) of 0.17 µM. For `O=C(O)CSc1c(C(=O)O)[nH]c2cc(Cl)cc(Cl)c12`, the IC50 is 0.1 µM.

With `O=C(O)CN(C(=O)c1ccccc1)c1c(C(=O)O)[nH]c2cc(Cl)cc(Cl)c12`, the IC50 is 0.4 µM.

Compound `CN(C(=O)C(=O)O)c1c(C(=O)O)[nH]c2cc(Cl)cc(Cl)c12` had an IC50 of 9.5 µM. Next, `O=C(O)c1cc(O)c2c(Cl)cc(Cl)cc2n1`: 0.14 µM.
